Measurements: a melting point compilation (Tetko et al.)

SMILES | melting point
O=C(O)CCCc1ccc2c(c1)CC(=O)N2 | 180 to 182 °C
O=C(O)CNS(=O)(=O)c1ccc(N2CCCC2=O)cc1 | 130 to 132 °C
NC(=O)CCCC(=O)O | 83 to 85 °C
COc1ccc(OCCC(=O)O)cc1 | 104 to 106 °C
CNC(=O)CNc1cccc(OC)c1 | 78 to 80 °C
Cc1nnc(Br)s1 | 106 to 108 °C
Cc1c(C(=O)O)cnn1Cc1ccccc1 | 172 to 174 °C
Nc1cc2c(=O)[nH]cnc2cc1F | 319 to 321 °C
Cc1c(C(=O)O)cc(S(N)(=O)=O)cc1[N+](=O)[O-] | 172 to 174 °C
Cn1cc(S(=O)(=O)Cl)cn1 | 48 to 50 °C
CC(C)(C)OC(=O)NC1(C(N)=NO)CCCC1 | 168 to 170 °C
CCOC(=O)/C(C#N)=C\Nc1cc(F)ccc1F | 164 to 166 °C
Cn1c(=O)c2c(S)nc(C(C)(C)C)nc2n(C)c1=O | 143 to 145 °C
Nn1c(S)nnc1-c1ccc(Cl)cc1Cl | 90 to 92 °C
N#Cc1c(O)c(Cl)c(Cl)c(C#N)c1Cl | 256 to 258 °C
COCCOc1ccc(F)cc1[N+](=O)[O-] | 54 to 56 °C
Cc1oc(C)c(C(=O)O)c1C | 131 to 133 °C
O=C(O)CCCNS(=O)(=O)c1ccc(Cl)c(Cl)c1 | 123 to 125 °C
CCOC(=O)C(C#N)C(N)=O (stereo not drawn) | 152 to 154 °C
CC(Cl)c1nc(-c2nnc[nH]2)no1 (stereo not drawn) | 187 to 189 °C
CC(CS(C)(=O)=O)NC1CC1 (stereo not drawn) | 39 to 41 °C
CN1CCC(n2nccc2N)CC1 | 98 to 100 °C
Cc1oc(-c2cccs2)nc1CC(=O)O | 185 to 187 °C

SMILES | melting point
Cc1ccc(-c2n[nH]c(S)nc2=O)cc1 | 225 to 227 °C
NCc1ccc(C(N)=O)nc1 | 146 to 148 °C
O=C(O)CNC1CCCC1 | 210 to 212 °C
Cc1nn2cnnc2[nH]c1=O | 195 to 197 °C
OCc1cccc(F)c1Cl | 34 to 36 °C
NC(=O)CC1CCCC1 | 149 to 151 °C
CC(=O)c1cc(C#N)c(SCC(=O)O)nc1C | 187 to 189 °C
CC(=O)Nc1cccc(C#N)c1 | 133 to 135 °C
CC1(c2ccc3c(c2)CCC3)NC(=O)NC1=O (stereo not drawn) | 188 to 190 °C
O=C(CCl)NCc1ccc(-c2ccc(Cl)cc2)o1 | 213 to 218 °C
CCOc1ccc(C2CCCN2)cc1 (stereo not drawn) | < 17 °C
Cc1nc2c(s1)C(O)CCC2 (stereo not drawn) | 80 to 82 °C
O=C(CCl)NC1CCCCNC1=O (stereo not drawn) | 196 to 198 °C
CC(N)C(=O)Nc1ccc(Cl)cc1 (stereo not drawn) | 84 to 86 °C
Cc1sc(NC(=O)CCl)c(C#N)c1C | 180 to 182 °C
Cc1c(N)cccc1C(=O)N1CCOCC1 | 106 to 108 °C
CCOC(=O)c1[nH]c2c(c1C)C(=O)CCC2 | 159 to 161 °C
COc1ccc(OCc2cc(C)on2)c(C(=O)O)c1 | 114 to 116 °C
CCC(C)C(N)C(N)=O (stereo not drawn) | 76 to 78 °C
Cc1ccc(-c2nc(N)sc2-c2ccc(C)cc2)cc1 | 153 to 155 °C
O=C1Cc2cc3c(cc2CCN1)OCCO3 | 226 to 228 °C
Cn1c(C2CC2)nc2cnccc21 | 100 to 102 °C
O=C(O)c1nn(-c2c(Cl)cc(Cl)cc2Cl)cc1O | 194 to 196 °C

SMILES | melting point
O=C(O)c1cccc(OC2CCCC2)c1 | 79 to 81 °C
CC(=O)N1CCCc2cc(Br)ccc21 | 59 to 61 °C
COc1ccc(S(=O)(=O)N2CCCCC2)cc1N | 137 to 139 °C
O=c1[nH]ccc2sccc12 | 159 to 161 °C
COc1ccc(C(=O)NCC(=O)O)cc1[N+](=O)[O-] | 98 to 100 °C
CCN1N=C(C(=O)O)CCC1=O | 147 to 149 °C
Cc1c(N)cccc1-c1nc2cc(F)ccc2n1C1CC1 | 131 to 133 °C
CC1=NN(C2CCS(=O)(=O)C2)C(=O)C1 (stereo not drawn) | 185 to 187 °C
Nc1nc(-c2ccc(OC(F)F)cc2OC(F)F)cs1 | 86 to 88 °C
Nc1ccc2c(c1)NC(=O)CS2 | 218 to 222 °C
Cc1ccc(OCc2nc(N)no2)cc1 | 144 to 146 °C
CC1(C)CC(NC(=O)CCl)CC(C)(C)N1 | 61 to 63 °C
CC(=O)Nc1cccs1 | 146 to 148 °C
N#Cc1cc(F)ccc1S(=O)(=O)Cl | 64 to 66 °C
O=C(O)c1cc(S(=O)(=O)Cl)cc(F)c1Cl | 149 to 151 °C
CC(C)(C)OC(=O)N1CCCc2ccc(N)cc21 | 90 to 92 °C
COc1cc2ncc(Cl)nc2cc1OC | 149 to 151 °C
CN1C(=O)CCC(C(N)=O)C1c1ccc(C(F)(F)F)cc1 (stereo not drawn) | 239 to 241 °C
COC(=O)c1c[nH]c2cccc(F)c12 | 159 to 161 °C
CC(C)(C)C1CCc2[nH]c3ccc(Cl)cc3c2C1 (stereo not drawn) | 107 to 109 °C
Cc1[nH]c(C(=O)O)c(C)c1S(N)(=O)=O | 214 to 216 °C
CC1=NN(c2ccc(Cl)c(Cl)c2)C(=O)C1 | 158 to 160 °C
O=C(CCl)Nc1c(Cl)cccc1Cl | 178 to 180 °C

SMILES | melting point
Cc1ccc(S(=O)(=O)OC2CCS(=O)(=O)C2)cc1 (stereo not drawn) | 80 to 82 °C
NC(=O)CNS(=O)(=O)c1cccc(C(=O)O)c1 | 259 to 261 °C
CC1(C)CCCCC1=CC(=O)O | 89 to 91 °C
Brc1ccc(OCC2CO2)cc1 (stereo not drawn) | 49 to 51 °C
CC(C)CC(Cc1cccc(Br)c1)C(=O)O (stereo not drawn) | 66 to 68 °C
COC(=O)c1cc(Cl)c(N)cc1OC | 124 to 126 °C
COc1cc(C(=O)O)ccc1OC1CCCC1 | 153 to 155 °C
O=C(O)C(=O)Cc1ccc(Cl)cc1 | 192 to 194 °C
COc1cc(F)c([N+](=O)[O-])cc1F | 78 to 80 °C
CC(Cl)C(=O)NC1CCCCC1 (stereo not drawn) | 98 to 100 °C
O=C(O)CC1(C(=O)O)CCN(C(=O)OCc2ccccc2)C1 (stereo not drawn) | 169 to 171 °C
Cc1cc(C)c2c(=O)[nH][nH]c2n1 | 249 to 251 °C
CC(=O)OCC(=O)[C@@]1(O)CC[C@H]2[C@@H]3CCC4=CC(=O)CC[C@]4(C)[C@H]3[C@@H](O)C[C@@]21C | 219 to 221 °C
CCCCn1c(=O)[nH]c(=O)c2c1nc(CO)n2CCC | 134 to 136 °C
CCNC(=O)Cc1ccc(N)cc1 | 117 to 119 °C
Cc1cccnc1NC1CCCCC1 | 81 to 83 °C
COC(=O)c1c(N)sc2c1CCC2 | 149 to 151 °C
Cc1ccc(F)cc1Nc1ncc(C(=O)O)cc1Cl | 209 to 211 °C
CC(=O)CC(=O)c1cccc(Cl)c1 | 39 to 41 °C
Cn1nc(C2CCCCC2)cc1N | 169 to 171 °C
O=[N+]([O-])c1cccc(-c2cnc(CCCl)o2)c1 | 73 to 75 °C
CC(O)C1NC(=O)NC1=O (stereo not drawn) | 179 to 181 °C
COc1ccc(C(=O)O)cc1S(N)(=O)=O | 283 to 285 °C

More lines, now with the values ahead:

melting point | SMILES
95 to 97 °C | COc1ccc(Oc2ccc(N)cn2)cc1
92 to 94 °C | COC(=O)c1ncsc1SCc1ccccc1
95 to 97 °C | Cc1ccccc1OCc1csc(N)n1
150 to 152 °C | COc1ccccc1NS(=O)(=O)c1ccc(N2CCOCC2)c(N)c1
142 to 144 °C | O=C(O)CCNS(=O)(=O)c1ccccc1C(F)(F)F
110 to 112 °C | O=C(O)CCc1cc2ccccc2o1
59 to 61 °C | OC(c1ccccc1)c1cccnc1 (stereo not drawn)
130 to 135 °C | O=C(O)C1CC(=O)N(c2ccccc2F)C1 (stereo not drawn)
96 to 98 °C | CC(NC(=O)CCC(=O)O)C(=O)c1ccccc1 (stereo not drawn)
83 to 85 °C | CC(C(=O)OCc1ccccc1)S(N)(=O)=O (stereo not drawn)
179 to 181 °C | O=C(O)c1ccc(F)cc1-c1ccc(Cl)c(Cl)c1
120 to 124 °C | CCn1c(=O)[nH]c2ccccc21
87 to 89 °C | O=C(O)CCCNC(=O)c1ccccc1
132 to 134 °C | O=C(O)COc1ccc2oc3ccccc3c2c1
31 to 33 °C | Clc1noc(-c2ccccc2)n1
175 to 177 °C | CCOC=C1C(=O)N(c2ccc(OCC)cc2)C(=O)c2ccccc21
130 to 132 °C | CNC(=O)NC(=O)C(Cl)c1ccccc1 (stereo not drawn)
240 to 242 °C | NC(=S)c1cccc(C(=O)O)c1
167 to 169 °C | CC(=O)Cn1c(CCl)nc2ccccc2c1=O
119 to 121 °C | O=C(O)CSc1nccn1-c1ccc(C(F)(F)F)cc1
143 to 145 °C | COc1cc(C(=O)O)ccc1OCc1ccccc1Cl
228 to 230 °C | O=C(O)C(NCc1ccccc1)C1CC1 (stereo not drawn)
165 to 167 °C | Nc1c(-c2ccco2)nc2ccccn12
92 to 94 °C | CC1C(=O)NC1c1ccccc1 (stereo not drawn)
94 to 96 °C | CC(=O)c1ccc(OCC(=O)Nc2ccccc2)cc1
30 to 32 °C | CCC(=O)c1ccccc1OC(F)F

melting point | SMILES
292 to 294 °C | Sc1nnc(-c2ccccc2)n1-c1ccccc1
167 to 169 °C | NC(=NO)c1ccc(OCc2ccccc2)cc1
254 to 256 °C | O=c1oc2ccccc2nc1NO
81 to 83 °C | O=C(OCc1ccccc1)N1CCCC(CS(=O)(=O)Cl)C1 (stereo not drawn)
75 to 77 °C | CC(O)c1nc(-c2ccccc2)cs1 (stereo not drawn)
159 to 161 °C | NC(=O)NC(CC(=O)O)c1cccc(Br)c1 (stereo not drawn)
84 to 86 °C | Cc1ccccc1C(=O)CC#N
264 to 266 °C | NC(Cc1ccccc1)(C(=O)O)c1ccccc1 (stereo not drawn)
208 to 210 °C | O=C(O)CNC(=O)c1cc(-c2ccccc2)on1
188 to 190 °C | Cc1nc2ccccn2c1C(=O)NN
112 to 114 °C | Cc1ccc(-c2nn(-c3ccccc3)cc2C=O)o1
110 to 112 °C | O=C1NCCOc2ccccc21
114 to 116 °C | CC(Sc1ccc(C#N)cc1)C(=O)O (stereo not drawn)
54 to 56 °C | CC(Cl)c1ncc(-c2ccccc2)o1 (stereo not drawn)
64 to 66 °C | CCOc1ccccc1C=NO
125 to 127 °C | CC(C)c1n[nH]c(-c2ccccc2N)n1
144 to 146 °C | Cn1c(CO)nc2ccccc21
106 to 108 °C | O=C(O)c1cccnc1-n1cccn1
134 to 136 °C | O=[N+]([O-])c1ccc(Br)c2ccncc12
164 to 166 °C | O=C(CCl)n1nc2ccccn2c1=O
279 to 281 °C | CN1CC(=O)N(CC(=O)Nc2ccccc2)C1=O
124 to 126 °C | Cc1cccc(COc2cccc(C(=O)O)c2)c1
156 to 158 °C | CC(C)c1ccc(S(=O)(=O)Cc2ccoc2C(=O)O)cc1
155 to 157 °C | Nc1c(NCCCO)c(=O)[nH]c(=O)n1Cc1ccccc1
105 to 107 °C | CN(C(=O)c1ccncc1)c1ccc(C#N)cc1
